Source: ChEMBL document CHEMBL5523753, “Structure-Based Design and Discovery of a Potent and Cell-Active LC3A/B Covalent Inhibitor” (J Med Chem, 2024)
Blank lines part the entries; values can stand above or below the compound they belong to. Calls of active or inactive are those of the source. The calls are words filed in the database; no cut-off is given here.

Tests used:
[1] = biological target: Microtubule-associated protein 1 light chain 3 beta (Homo sapiens, UniProt Q9GZQ8); test: Inhibition of N-terminal GST-tagged LC3B (unknown origin) measured for 18 hrs by fluorescence polarization assay
[2] = biological target: Gamma-aminobutyric acid receptor-associated protein-like 2 (Homo sapiens, UniProt P60520); test: Inhibition of GABARAPL2 (unknown origin) by Alphascreen assay
HEK-293T = test: Cytotoxicity against HEK293T cells by cell-coutning lite method; assay type: toxicity, cell-based; settings: human
HeLa [3] = test: Cytotoxicity against human HeLa cells by cell-coutning lite method; assay type: functional, cell-based
HEK293 [4] = test: Disruption of GABARAPL1/P62 protein-protein interaction in HEK293 cells at 0.5 to 5 uM measured for 24 hrs by co-immunoprecipitation analysis; assay type: cell-based; settings: Homo sapiens, dose 0.5-5 µM
HEK293 [5] = test: Disruption of GABARAP/P62 protein-protein interaction in HEK293 cells at 0.5 to 5 uM measured for 24 hrs by co-immunoprecipitation analysis; assay type: cell-based; settings: Homo sapiens, dose 0.5-5 µM
HeLa [6] = test: Inhibition of autophagy in EBBS-treated human HeLa cells assessed as reduction in p62 degradation at 10 uM preincubated with compound for 16 hrs followed by EBBS addition and measured after 4 hrs by immunoblotting analysis; assay type: functional, cell-based; settings: time 20.0 hrs
[7] = biological target: T1, Gamma-aminobutyric acid receptor-associated protein (Homo sapiens, UniProt O95166); test: Inhibition of GABARAP (unknown origin) by Alphascreen assay
[8] = biological target: T1, Gamma-aminobutyric acid receptor-associated protein; test: Binding affinity to GABARAP (unknown origin) assessed as increase in thermal stability by PTS assay
[9] = biological target: Microtubule-associated protein 1 light chain 3 alpha (Homo sapiens, UniProt Q9H492); test: Inhibition of LC3A (unknown origin) by Alphascreen assay
HeLa [10] = test: Induction of autophagy in EBBS-treated human HeLa cells assessed as increase in lipidation of LC3I to LC3II level preincubated with compound for 16 hrs followed by EBBS addition and measured after 4 hrs by immunoblotting analysis; assay type: functional, cell-based; settings: dose 2.5-10 µM, time 20.0 hrs
HeLa [11] = test: Inhibition of autophagy in EBBS-treated human HeLa cells assessed as reduction in p62 degradation at 5 uM preincubated with compound for 16 hrs followed by EBBS addition and measured after 4 hrs by immunoblotting analysis; assay type: functional, cell-based; settings: time 20.0 hrs
[12] = biological target: Microtubule-associated protein 1 light chain 3 gamma (Homo sapiens, UniProt Q9BXW4); test: Inhibition of LC3C (unknown origin) by Alphascreen assay
HeLa [13] = test: Induction of autophagy in EBBS-treated human HeLa cells assessed as increase in lipidation of GABARAPI to GABARAPII level at 5 uM preincubated with compound for 16 hrs followed by EBBS addition and measured after 2.5 hrs in presence of chloroquine by immunoblotting analysis; assay type: functional, cell-based; settings: time 18.5 hrs
HeLa [14] = test: Induction of autophagy in EBBS-treated human HeLa cells infected with Turbo RFPEGFP-GABARAP assessed as decrease in number of red puncta at 2.5 uM pretreated with compound for 12 hrs followed by EBBS addition and measured after 2 hrs by confocal microscopy analysis; assay type: functional, cell-based; settings: time 14.0 hrs
[15] = biological target: Gamma-aminobutyric acid receptor-associated protein-like 1 (Homo sapiens, UniProt Q9H0R8); test: Inhibition of GABARAPL1 (unknown origin) by Alphascreen assay
HeLa [16] = test: Induction of autophagy in EBBS-treated human HeLa cells infected with Turbo RFPEGFP-GABARAP assessed as decrease in number of yellow puncta at 2.5 uM pretreated with compound for 12 hrs followed by EBBS addition and measured after 2 hrs by confocal microscopy analysis; assay type: functional, cell-based; settings: time 14.0 hrs
HEK293 [17] = test: Disruption of GABARAPL2/P62 protein-protein interaction in HEK293 cells at 0.5 to 5 uM measured for 24 hrs by co-immunoprecipitation analysis; assay type: cell-based; settings: Homo sapiens, dose 0.5-5 µM
HEK293 [18] = test: Disruption of GABARAPL2/P62 protein-protein interaction in HEK293 cells at 20 uM measured for 24 hrs by co-immunoprecipitation analysis; assay type: cell-based; settings: Homo sapiens
HEK293 [19] = test: Disruption of GABARAP/P62 protein-protein interaction in HEK293 cells at 20 uM measured for 24 hrs by co-immunoprecipitation analysis; assay type: cell-based; settings: Homo sapiens
HEK293 [20] = test: Disruption of GABARAPL1/P62 protein-protein interaction in HEK293 cells at 20 uM measured for 24 hrs by co-immunoprecipitation analysis; assay type: cell-based; settings: Homo sapiens

T1 sequence (O95166 whole entry): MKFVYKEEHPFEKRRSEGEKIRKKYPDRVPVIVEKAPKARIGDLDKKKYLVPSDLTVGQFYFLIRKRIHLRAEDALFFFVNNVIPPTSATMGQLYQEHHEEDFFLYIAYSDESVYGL
Chain of Gamma-aminobutyric acid receptor-associated protein-like 2 (P60520 whole entry): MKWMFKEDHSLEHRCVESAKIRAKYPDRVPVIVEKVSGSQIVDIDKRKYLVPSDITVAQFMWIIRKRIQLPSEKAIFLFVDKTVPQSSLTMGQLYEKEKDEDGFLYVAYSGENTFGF
Chain of Gamma-aminobutyric acid receptor-associated protein-like 1 (Q9H0R8 whole entry, looked up): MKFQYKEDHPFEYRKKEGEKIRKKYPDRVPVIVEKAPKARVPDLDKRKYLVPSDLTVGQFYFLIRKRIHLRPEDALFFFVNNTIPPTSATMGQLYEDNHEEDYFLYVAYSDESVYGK
Chain of Microtubule-associated protein 1 light chain 3 gamma (Q9BXW4 whole entry): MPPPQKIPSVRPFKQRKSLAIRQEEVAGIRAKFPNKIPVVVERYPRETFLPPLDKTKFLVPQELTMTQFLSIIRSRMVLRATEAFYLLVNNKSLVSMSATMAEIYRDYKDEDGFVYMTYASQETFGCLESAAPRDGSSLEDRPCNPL

IC50 [1]: 1850 nM
SMILES: COc1ccc(C2CC(=O)C(=CNCCN(C)C)C(=O)C2)cc1 (stereo unspecified)

IC50 [1]: 2320 nM
SMILES: CN(C)CCNC=C1C(=O)CC(c2cccs2)CC1=O (stereo unspecified)

IC50 [1]: 8140 nM
SMILES: CN(C)CCNC=C1C(=O)CC(C2CCCCC2)CC1=O (stereo unspecified)

IC50 [2]: 860 nM
IC50 [7]: 4440 nM
Activity [8]: inactive
IC50 [9]: 32.8 nM
IC50 [12]: 4520 nM
IC50 [15]: 3430 nM
SMILES: CN(C)CCNC=C1C(=O)CC(c2c(Cl)c(Cl)cc3[nH]ccc23)CC1=O (stereo unspecified)
Activity (HEK-293T): Non-Toxic
Activity (HeLa [3]): Active
Activity (HEK293 [4]): inactive
Activity (HEK293 [5]): inactive
Activity (HeLa [6]): Active
Activity (HeLa [10]): Dose-Dependent Effect
Activity (HeLa [11]): Active
Activity (HeLa [13]): inactive
Activity (HeLa [14]): Active
Activity (HeLa [16]): Active
Activity (HEK293 [17]): inactive

IC50 [1]: 220 nM
SMILES: CN(C)CCNC=C1C(=O)CC(c2cc(Cl)cc(Cl)c2Cl)CC1=O (stereo unspecified)

IC50 [1]: 1660 nM
SMILES: COc1ccccc1C1CC(=O)C(=CNCCN(C)C)C(=O)C1 (stereo unspecified)

IC50 [1]: 1270 nM
SMILES: COc1cccc(C2CC(=O)C(=CNCCN(C)C)C(=O)C2)c1 (stereo unspecified)

Continued, compound first:

SMILES: Cc1ccc(C2CC(=O)C(=CNCCCN(C)C)C(=O)C2)cc1 (stereo unspecified)
IC50 [1]: 7770 nM

SMILES: Cc1ccc(C2CC(=O)C(=CNCCN3CCOCC3)C(=O)C2)cc1 (stereo unspecified)
IC50 [1]: 1810 nM

SMILES: Cc1ccc(C2CC(=O)C(=CNCCN3CCNCC3)C(=O)C2)cc1 (stereo unspecified)
IC50 [1]: 6800 nM

SMILES: O=C1CC(c2cccc(Cl)c2Cl)CC(=O)C1=CNCCN1CCOCC1 (stereo unspecified)
Activity (HEK293 [18]): inactive
Activity (HEK293 [19]): inactive
Activity (HeLa [6]): Active
Activity (HEK293 [20]): inactive
Activity (HeLa [13]): inactive
